The values below are quoted from earlier work in patent US8148337B2, “Vaginal compositions for treating pelvic tissue infections and traumas” (priority 2003, dated 2012).

Each structure is given as a SMILES string.

In one series the test system is chlamydial infection. The conditions noted are these: orally as a single dose.
The conditions of series [1]: administered rectally.

For the compound `CC[C@H]1OC(=O)[C@H](C)[C@@H](O[C@H]2C[C@@](C)(OC)[C@@H](O)[C@H](C)O2)[C@H](C)[C@@H](O[C@@H]2O[C@H](C)C[C@H](N(C)C)[C@H]2O)[C@](C)(O)C[C@@H](C)CN(C)[C@H](C)[C@@H](O)[C@]1(C)O` [azithromycin], in the series with chlamydial infection, the “women who experience side effects” value is 25%. The bioavailability result in series [1] was “highly variable and low”.
